Test results published in PubChem BioAssay AID1963958 (Molecular Pharmacology Branch, DTP, NCI, 2024).
Where “and” joins values, the source holds several entries; their conditions need not be identical. Equal entries are not always repeated.

Tested on: MDA-MB-231 multicell spheroids, viability
Assay: Anticancer human tumor MDA-MB-231 cell line growth inhibition [PI3K];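 further: spheroids exposed to agents for seven days before reading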;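 on viability, T/C: percent of vehicle control luminescence with DMSO treated spheroids as 100%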
Conditions: for viability, T/C: stronger effect = lower value
Description: Combinatorial screen of targeted agents with the PI3K inhibitors inavolisib, alpelisib, duvelisib, and copanlisib in multi-cell type tumor spheroids
A high-throughput screen of multi-cell type tumor spheroids was designed to identify active combinations of targeted small molecules and PI3K pathway inhibitors. Complex spheroids include a stromal component modeled by human endothelial cells (HUVEC) and fibroblasts modeled by human mesenchymal stem cells (MSCs). The concentration ranges selected for each drug and investigational agent were based upon clinically achievable concentrations if the clinical Cmax of the agent was known.
Compounds. The drugs and investigational agents: inavolisib (NSC800729), alpelisib (NSC765974), duvelisib (NSC772469), copanlisib (NSC816437), ipatasertib (NSC767898), afuresertib (NSC778305), talazoparib (NSC767125), sapanisertib (NSC764658), selumetinib (NSC741078), tovorafenib (DAY101, NSC766906), vemurafenib (NSC761431), ravoxertinib (NSC781343), sotorasib (NSC818433), MRTX1133 (NSC 836407), abemaciclib (NSC 768073), palbociclib (NSC758247), venetoclax (NSC 766270), SY5609 (NSC837396), enzalutamide (NSC755605), and darolutamide (NSC825331), were obtained from the National Cancer Institute (NCI) Developmental Therapeutics Program Chemical Repository. The FDA-approved anticancer drug set is available from the NCI Developmental Therapeutics Program. […] The stock solutions were prepared in dimethyl sulfoxide (DMSO, Sigma-Aldrich, St. Louis, MO, cat. D2650) at 800-fold the tested concentration and stored at -70 degrees C prior to their use. All drugs and investigational agents were tested over a range starting from a high concentration at or near the clinical Cmax and decreasing in half-log increments. If the clinical Cmax for an agent had not been determined, the highest concentration tested was 10 microM.
Cell Culture. All cells were maintained in an incubator at 37 degrees C and 5% CO2 with 95% humidity. The PDC lines were cultured according to standard operating procedures established by the NCI PDMR (https://pdmr.cancer.gov/sops/default.htm). All PDCs were thawed and cultured in Matrigel-coated flasks prepared with a working solution of 1X Ham's F-12 nutrient mix, without supplementation (Invitrogen, Waltham, MA, cat. 11765054), 100 U/mL penicillin-streptomycin (Invitrogen, cat. 15140122), and 2.5% Matrigel (Corning Inc., Corning, NY, cat. 354248) for the first three passages. The 354836-022-R-J1-PDC, 475296-252-R-J1-PDC, and 997726-040-R-J2-PDC lines were cultured in 6A media, which includes advanced DMEM/F-12 (Thermo Fisher Scientific, cat. 12634028), 10 mM HEPES (Thermo Fisher Scientific, cat. 15630080), 1X GlutaMAX supplement (Thermo Fisher Scientific, cat. 35050061), 0.1 mg/mL primocin (InvivoGen, San Diego, CA, cat. ant-pm-2), 10% defined fetal bovine serum, heat inactivated (HyClone Laboratories Inc., Logan, UT, cat. SH30070.03HI), 50% L-WRN conditioned media (ATCC, cat. CRL-3276), 1.25 mM N-Acetyl-L-cysteine (Sigma-Aldrich, cat. A9165), 10 mM nicotinamide (Sigma-Aldrich, cat. N0636), 1X B-27 supplement (Thermo Fisher Scientific, cat. 17504044), 1X N-2 supplement (Thermo Fisher Scientific, cat. 17502048), and 10 microM Y-27632 dihydrochloride (Tocris Bioscience, Bristol, United Kingdom, cat. 1254). The 624824-186-R-J2-PDC line was cultured in 6C/Colon 1B media, which includes all 6A media components plus 50 ng/mL human EGF recombinant protein (Thermo Fisher Scientific, cat. PHG0311). […]

[1] = compound alone, run of 05/08/2023

IC50 (curve of compound) | Structure (SMILES) | viability, T/C (compound 0.0316 µM) | viability, T/C (compound 0.1 µM) | viability, T/C (compound 0.316 µM) | viability, T/C (compound 3.16 µM) | viability, T/C (compound 10 µM) | viability, T/C (compound 0.00316 µM) | viability, T/C (compound 0.01 µM) | viability, T/C (compound 1 µM) | further results
> 10000 nM | C=CC(=O)N1CCN(c2nc(=O)n(-c3c(C)ccnc3C(C)C)c3nc(-c4c(O)cccc4F)c(F)cc23)C(C)C1 (configuration not stated) | 109% [middle of 4 runs] | 101% [middle of 4 runs] | 124% [middle of 4 runs] | 136% [middle of 4 runs] | 127% [middle of 4 runs] |  |  |  | 
> 10000 nM | CC(Cn1ccc(-c2ccc(C#N)c(Cl)c2)n1)NC(=O)c1cc(C(C)O)[nH]n1 (configuration not stated) | 106% [middle of 4 runs] | 99% [middle of 4 runs] | 111% [middle of 4 runs] | 100% [middle of 4 runs] | 92.5% [middle of 4 runs] |  |  | 107% [middle of 4 runs] | 
31.6 nM and 56.2 nM | CC1(C)CCC(Nc2ncc(C(F)(F)F)c(-c3c[nH]c4c(P(C)(C)=O)c(C#N)ccc34)n2)CN1 (configuration not stated) | 44.8% [middle of 4 runs] | 42.5% [middle of 4 runs] | 44.1% [middle of 4 runs] | 56.4% [middle of 4 runs] | 5.5% [middle of 4 runs] |  |  | 54.3% [middle of 4 runs] | 
> 10000 nM | CNC(=O)c1ccc(N2C(=S)N(c3ccc(C#N)c(C(F)(F)F)c3)C(=O)C2(C)C)cc1F | 110% [middle of 4 runs] | 111% [middle of 4 runs] | 113% [middle of 4 runs] | 98.3% [middle of 4 runs] | 88.7% [middle of 4 runs] |  |  | 107% [middle of 4 runs] | 
> 10000 nM | C[C@@H](NC(=O)c1ncnc(N)c1Cl)c1ncc(C(=O)Nc2cc(C(F)(F)F)c(Cl)cn2)s1 | 139% [middle of 4 runs] |  |  | 77.3% [middle of 4 runs] | 64.8% [middle of 4 runs] |  |  |  | 
905 nM [middle of 4 runs] | Cn1nccc1Nc1nccc(-c2ccn(C(CO)c3ccc(Cl)c(F)c3)c(=O)c2)n1 (configuration not stated) | 87% [middle of 4 runs] | 70.7% [middle of 4 runs] | 61.5% [middle of 4 runs] | 41.8% [middle of 4 runs] | 30.1% [middle of 4 runs] |  |  | 50.8% and 49.5% and 49.4% (2×) | 
> 100 nM | Cn1ncnc1[C@H]1c2n[nH]c(=O)c3cc(F)cc(c23)N[C@@H]1c1ccc(F)cc1 | 94% [middle of 4 runs] | 88.7% [middle of 4 runs] |  |  |  | 95.2% [middle of 4 runs] | 92.4% [middle of 4 runs] |  | viability, T/C (compound 0.000316 µM): 114% and 106% and 107% (2×)

Second part, the molecule before the results:

Structure (SMILES) | IC50 (curve of compound) | viability, T/C (compound 0.0316 µM) | viability, T/C (compound 0.1 µM) | viability, T/C (compound 0.316 µM) | viability, T/C (compound 3.16 µM) | viability, T/C (compound 10 µM) | viability, T/C (compound 0.00316 µM) | viability, T/C (compound 0.01 µM) | viability, T/C (compound 1 µM) | further results
CC(=O)c1c(C)c2cnc(Nc3ccc(N4CCNCC4)cn3)nc2n(C2CCCC2)c1=O | 98 nM and 91.6 nM and > 100 nM | 79.7% [middle of 4 runs] | 49.9% [middle of 4 runs] |  |  |  | 101% [middle of 4 runs] | 90% [middle of 4 runs] |  | viability, T/C (compound 0.000316 µM): 105% [middle of 4 runs]; viability, T/C (compound 0.001 µM): 104% and 100% and 103% (2×)
CC(C)NCC(C(=O)N1CCN(c2ncnc3c2C(C)CC3O)CC1)c1ccc(Cl)cc1 (configuration not stated) | > 10000 nM and 8950 nM and 7840 nM | 114% [middle of 4 runs] | 102% [middle of 4 runs] | 97.3% [middle of 4 runs] | 70.9% [middle of 4 runs] | 49.8% [middle of 4 runs] |  |  | 87.9% [middle of 4 runs] | 
CC(C)n1nc(-c2ccc3oc(N)nc3c2)c2c(N)ncnc21 | 66.7 nM [middle of 4 runs] | 67.4% [middle of 4 runs] | 38.8% [middle of 4 runs] |  |  |  | 104% and 101% (2×) and 97.3% | 84.7% [middle of 4 runs] |  | viability, T/C (compound 0.000316 µM): 107% [middle of 4 runs]; viability, T/C (compound 0.001 µM): 99.7% [middle of 4 runs]
CC(Nc1ccc2c(c1)OCCn1cc(N3C(=O)OCC3C(F)F)nc1-2)C(N)=O (configuration not stated) |  | 81.9% [middle of 8 runs] | 72.1% [middle of 8 runs] | 64.8% [middle of 8 runs] |  |  | 103% [middle of 8 runs] | 96.1% [middle of 8 runs] | 64.2% [middle of 8 runs] | IC50 [1]: > 1000 nM
CC(Nc1ncnc2nc[nH]c12)c1cc2cccc(Cl)c2c(=O)n1-c1ccccc1 (configuration not stated) |  | 105% [middle of 8 runs] | 100% [middle of 8 runs] | 95.5% [middle of 8 runs] | 63.9% [middle of 8 runs] | 50.6% [middle of 8 runs] |  |  | 82.7% [middle of 8 runs] | 
CC1(C)CCC(CN2CCN(c3ccc(C(=O)NS(=O)(=O)c4ccc(NCC5CCOCC5)c([N+](=O)[O-])c4)c(Oc4cnc5[nH]ccc5c4)c3)CC2)=C(c2ccc(Cl)cc2)C1 |  | 108% [middle of 4 runs] | 103% [middle of 4 runs] | 109% [middle of 4 runs] | 113% (2×) and 112% and 119% |  |  |  | 113% [middle of 4 runs] | 
CCCS(=O)(=O)Nc1ccc(F)c(C(=O)c2c[nH]c3ncc(-c4ccc(Cl)cc4)cc23)c1F | 5.82 µM [middle of 4 runs] | 113% [middle of 4 runs] | 111% [middle of 4 runs] | 104% [middle of 4 runs] | 68.9% [middle of 4 runs] | 34.8% [middle of 4 runs] |  |  | 89.3% [middle of 4 runs] | 
CCN1CCN(Cc2ccc(Nc3ncc(F)c(-c4cc(F)c5nc(C)n(C(C)C)c5c4)n3)nc2)CC1 |  | 87% [middle of 4 runs] | 67% and 57.2% and 58.3% (2×) | 56.5% and 44.8% and 49.5% (2×) |  |  | 102% [middle of 4 runs] | 97.1% [middle of 4 runs] | 49.3% [middle of 4 runs] | 
COc1c(OCCCN2CCOCC2)ccc2c3n(c(=NC(=O)c4cnc(N)nc4)nc12)CCN3 |  | 61.3% [middle of 8 runs] | 46.3% [middle of 8 runs] | 31.6% [middle of 8 runs] |  |  | 99.7% [middle of 8 runs] | 79.4% [middle of 8 runs] | 26% [middle of 8 runs] | IC50 (compound alone, run of 05/09/2023): 73.8 nM [middle of 8 runs]
Cc1nc(NC(=O)N2CCCC2C(N)=O)sc1-c1ccnc(C(C)(C)C(F)(F)F)c1 (configuration not stated) |  | 98.2% [middle of 8 runs] | 88.9% [middle of 8 runs] | 75.4% [middle of 8 runs] | 64.6% [middle of 8 runs] | 63% [middle of 7 runs] |  |  | 71.2% [middle of 8 runs] | IC50 [1]: > 10000 nM
Cn1cnc2c(F)c(Nc3ccc(Br)cc3Cl)c(C(=O)NOCCO)cc21 | 431 nM [middle of 4 runs] |  |  |  |  |  |  |  |  | viability, T/C (compound 0.00949 µM): 72.7% [middle of 4 runs]; viability, T/C (compound 0.03 µM): 64.9% [middle of 4 runs]; viability, T/C (compound 0.0949 µM): 59.5% and 57.3% (2×) and 57.6%; viability, T/C (compound 0.3 µM): 53.2% [middle of 4 runs]; viability, T/C (compound 0.949 µM): 47.3% [middle of 4 runs]; viability, T/C (compound 3 µM): 34.5% [middle of 4 runs]
